The values that follow come from patent US20230303672A1, “METASTATIC CANCER TREATMENT OR PREVENTION” (OXFORD BROOKES UNIVERSITY, priority 2020, published 2023).

Assay [1] deals with MCF7 (metastatic) cells adhering to endothelial cells. Kind of assay: Endothelial static adhesion assay with or without antibodies and peptides. The class given is cell-based. The note with it: peptide and corresponding peptide conjugate; compared to BT474 (non-metastatic) cells; 12 replicates; FIG. 15. The protocol: MCF7 and HUVEC cells were grown in 24 well cell culture plates to 70% confluency the cells were treated with Dharmafect™ transfection reagent and 5 uM of plectin siRNAs or scrambled negative control for 24 hrs. Some HUVEC and MCF7 cells were non-treated. HUVEC cells were activated by treating with 10 ug/ml TNFa in complete medium for 2 hrs at 37° C., 5% CO2. MCF7 breast cancer cells were grown in T75 flasks until 70% confluency and treated with 10 mg/ml HTPS in complete medium for 2 hrs at 37° C., 5% CO2. HTPS was removed and cells were washed with 10 ml of PBS 5 times until the wash ran clear. Cells were scraped and counted. 20,000 cells/ml was prepared. MCF7 cells were treated with either 500 ul of EVs isolated using the extraction method outlined above, or 500 ul of PBS for 10 mins at RT. EVs or PBS was removed and 1 ml of MCF7 cells were added to HUVEC cells and incubated at 37° C., 5% CO2 for 10 mins, before cells were removed and wells gently washed with warmed PBS to remove any unbound cells. Wells were then fixed with 4% PFA for 10 mins at RT. Fixative was removed and the wells washed 3 times with PBS and then coverslips were mounted using fluoromount. Total adhered cells per coverslip were counted.
This was as above but using 1/1000 of stock antibodies and peptides stated below.

The subject of assay [2] is HPA-positive BC cells binding to endothelial cells. The note with it: incubating cells with HPA or BSA-GalNAc; 'It has been shown'; cited from earlier work.
In assay [3] the test system is MCF7 breast cancer cell adhesion to endothelial cells (HUVEC). The experiment in a line: Endothelial static adhesion assay with recombinant plectin. The settings on record: MCF7 treated with 0.1 ug/ml recombinant plectin for 10 mins, compared to untreated, FIG. 6. It is filed as cell-based. The protocol: Coverslips with activated endothelial cells were prepared as above. MCF7 breast cancer cells were grown in T75 flasks until 70% confluency and treated with 10 mg/ml HTPS in complete medium for 2 hrs at 37° C., 5% CO2. HTPS was removed and cells were washed with 10 ml of PBS 5 times until the wash ran clear. Cells were scraped and counted. 20,000 cells/ml was prepared. MCF7 cells were treated with either 0.1 ug/ml recombinant plectin, (2b Scientific SKU RPC754Hu01 (residues Asp 175-Pro 400 (SEQ ID NO: 1) of human plectin Uniprot ID Q15149, corresponding to the actin-binding domain), in PBS or PBS for 10 mins at RT. Recombinant plectin or PBS were removed from cells and 20,000 cells/ml of MCF7 cells were added per well and incubated for 10 mins, cells were removed and wells gently washed with warmed PBS to remove any unbound cells. Wells were then fixed with 4% PFA for 10 mins at RT. Fixative was removed and the wells washed 3 times with PBS and then coverslips were mounted using fluoromount. Total adhered cells per coverslip were counted.
Sterilised 13 mm D glass coverslips were placed in wells of 24 well plate and 100,000 HUVEC cells were seeded. Cells were incubated at 37° C. with 5% CO2 atmosphere until cells became a monolayer. HUVEC cells were activated by treating with 10 ug/ml TNFa in complete medium for 2 hrs at 37° C., 5% CO2.

Take AVIYGGVQ [SEQ7]: the “MCF7 (metastatic) cells binding to endothelial cells (peptide)” value in assay [1] was “specifically reduces MCF7 (metastatic) cells binding to endothelial cells in a concentration dependant manner”.

As to “BSA-GalNAc: GalNAc sugar conjugated to BSA”, the “BC cell binding to endothelial cells” value in assay [2] is on record as “inhibits cells binding”.

B1: recombinant plectin: 2b Scientific RPC754Hu01, residues Asp 175-Pro 400 (SEQ ID NO: 1) of human plectin, the actin-binding domain (protein, listed as Homo sapiens)
chain: DERDRVQKKTFTKWVNKHLIKAQRHISDLYEDLRDGHNLISLLEVLSGDSLPREKGRMRFHKLQNVQIALDYLRHRQVKLVNIRNDDIADGNPKLTLGLIWTIILHFQISDIQVSGQSEDMTAKEKLLLWSQRMVEGYQGLRCDNFTSSWRDGRLFNAIIHRHKPLLIDMNKVYRQTNLENLDQAFSVAERDLGVTRLLDPEDVDVPQPDEKSIITYVSSLYDAMP
B1: the figures for the “Cell adhesion of MCF7 to endothelial cells” value in assay [3] and in assay [3] (listed as recombinant plectin fragment) were “significantly decreases” and “significantly reduced”, respectively.
